Source: PMC7915026, “Sulfaguanidine Hybrid with Some New Pyridine-2-One Derivatives: Design, Synthesis, and Antimicrobial Activity against Multidrug-Resistant Bacteria as Dual DNA Gyrase and DHFR Inhibitors” (Antibiotics, 2021)
Values after ≈ are worked out from the molar mass of the structure shown. Where two headings read alike, the source gives them in different places.

How the values were obtained:
[1] = system: C. albicans (ATCC 10231); assay: Inhibition zone, paper disk/agar diffusion; assay type: cell-based; settings: Na = no activity
Source text: (§1) The antimicrobial activity performed at the bacteriology laboratory, Botany and Microbiology Department, Faculty of Science, Al-Azhar University, Cairo, Egypt. The inhibition zone (IZ) of the tested derivatives expressed as the diameter (mm) according to the agar plate diffusion method.

[2] = system: S. typhi ATCC 6539; assay: Inhibition zone, paper disk/agar diffusion; assay type: cell-based; settings: S. typhi; Na = no activity
Source text: as §1

[3] = system: F. oxysporum (RCMB 008002); assay: Inhibition zone, paper disk/agar diffusion; assay type: cell-based; settings: Na = no activity
Source text: as §1

[4] = system: P. aeruginosa ATCC 27853; assay: Inhibition zone, paper disk/agar diffusion; assay type: cell-based; settings: P. aeruginosa; Na = no activity
Source text: as §1

[5] = system: E. faecalis ATCC 29212; assay: Inhibition zone, paper disk/agar diffusion; assay type: cell-based; settings: E. faecalis; Na = no activity
Source text: as §1

[6] = system: E. coli ATCC 25922; assay: Inhibition zone, paper disk/agar diffusion; assay type: cell-based; settings: E. coli; Na = no activity
Source text: as §1

[7] = system: B. subtilis ATCC 6633; assay: Inhibition zone, paper disk/agar diffusion; assay type: cell-based; settings: B. subtilis; Na = no activity
Source text: as §1

[8] = system: C. albicans (ATCC 10231); assay: MIC and MFC determination; assay type: cell-based
[9] = system: F. oxysporum (RCMB 008002); assay: MIC and MFC determination; assay type: cell-based
[10] = system: S. aureus ATCC 29213; assay: Inhibition zone, paper disk/agar diffusion; assay type: cell-based; settings: S. aureus; Na = no activity
Source text: as §1

[11] = system: spleen and thymus; assay: In vivo immunomodulation: immune organ weight and indexes; settings: mice
Source text: Both the spleen and thymus have important antibacterial and fungal immune organ responses, and any change in weight, and indexes can reflect the level of immune regulation. Additionally, the relative spleen and thymus indexes are important indices for nonspecific immunity and potential immunomodulatory compounds that increase the spleen and thymus weight. This increase is due to immune cells’ stimulation in the spleen and thymus. […]

[12] = system: CD4+ and CD8+ T lymphocytes; assay: In vivo T lymphocyte subsets from peripheral blood, flow cytometry; settings: mice
Source text: Activation of immune cells as CD4^+ and CD8^+ T cells is one possible mechanism of a drug’s immune stimulus activity. An increase in these cells is thought to be a good indicator of an active immune response to infections. So, our work extended to study the effect of the most promising derivatives (2d, 8, and 11) on T lymphocyte subsets (CD4^+ and CD8^+) from peripheral blood, and determined the relative level in model mice that analyzed by flow cytometry after the period of treating.
In vitro intracellular killing activities for the most promising six derivatives 2a, 2b, 2d, 3a, 8, and 11 were performed according to reported methods.

| Structure (SMILES) | Mean Diameter of the Inhibition Zone [1] | Mean Diameter of the Inhibition Zone [2] | Mean Diameter of the Inhibition Zone [3] | Mean Diameter of the Inhibition Zone [4] | Mean Diameter of the Inhibition Zone [5] | melting point | Mean Diameter of the Inhibition Zone [6] | Mean Diameter of the Inhibition Zone [7] | Mean Diameter of the Inhibition Zone [10] | further results |
| --- | --- | --- | --- | --- | --- | --- | --- | --- | --- | --- |
| N#Cc1c(-c2ccc(O)cc2)c(C#N)c(=O)n(-c2ccc(S(=O)(=O)NC(=N)N)cc2)c1N [Compound 3c, 4-(6-Amino-3,5-dicyano-4-(4-hydroxyphenyl)-2-oxopyridin-1(2H)-yl)-N-carbamimidoylbenzenesulfonamide] | 22 ± 0.19 mm | 20 ± 0.33 mm | 19 ± 0.55 mm | 17 ± 0.20 mm | 19 ± 0.33 mm | 265 to 268 °C | – | – | – | – |
| N#Cc1c(N)n(-c2ccc(S(=O)(=O)NC(=N)N)cc2)c(=O)c2c(=N)oc3ccccc3c12 [Compound 12, 4-(2-Amino-1-cyano-5-imino-4-oxo-4H-chromeno[3,4-c]pyridin-3(5H)-yl)-N-cabamimidoylbenzenesulfonamide] | 12 ± 0.50 mm | – | no activity | – | 12 ± 0.74 mm | 266 to 268 °C | 14 ± 0.21 mm | 15 ± 0.45 mm | – | – |
| C[C@@H]1[C@H](O)[C@@H](C)/C=C/C=C/C=C/C=C/C=C/C=C/C=C/[C@H](O[C@@H]2O[C@H](C)[C@@H](O)[C@H](N)[C@@H]2O)C[C@@H]2O[C@](O)(C[C@@H](O)C[C@@H](O)[C@H](O)CC[C@@H](O)C[C@@H](O)CC(=O)O[C@H]1C)C[C@H](O)[C@H]2C(=O)O [Amphotericin B, amphotericin B, reference compound] | 22 ± 0.2 mm | – | 18 ± 0.32 mm | – | – | – | – | – | – | MFC ([8]; Candida albicans, ATCC10231, read-out: MFC): 37.3 µM (≈ 34.4 µg/mL); MIC ([8]; Candida albicans, ATCC10231, read-out: MIC): 16.8 µM (≈ 15.5 µg/mL); MFC ([8]; listed as Amp. B): 37.26 ± 0.65 µM (≈ 34.4 µg/mL); MIC ([8]; listed as Amp. B): 16.81 ± 0.29 µM (≈ 15.5 µg/mL); Mean Diameter of the Inhibition Zone ([1]; listed as S2): 22 ± 0.20 mm; MFC ([9]; Fusarium oxysporum, RCMB008002, read-out: MFC): 70.6 µM (≈ 65.3 µg/mL); MIC ([9]; Fusarium oxysporum, RCMB008002, read-out: MIC): 33.6 µM (≈ 31.1 µg/mL); MFC ([9]; listed as Amp. B): 70.62 ± 0.76 µM (≈ 65.3 µg/mL); MIC ([9]; listed as Amp. B): 33.63 ± 0.98 µM (≈ 31.1 µg/mL) |
| COc1ccc(-c2c(C(=O)Nc3ccc(S(=O)(=O)NC(=N)N)cc3)c(N)n(C3CCCCC3)c(=O)c2C#N)cc1 [Compound 4, 2-Amino-N-(4-(N-carbamimidoylsulfamoyl)phenyl)-5-cyano-1-cyclohexyl-4-(4-methoxyphenyl)-6-oxo-1,6-dihydropyridine-3-carboxamide] | 20 ± 0.50 mm | no activity | no activity | 23 ± 0.74 mm | 25 ± 0.35 mm | 272 to 274 °C | – | 23 ± 0.22 mm | 24 ± 0.33 mm | – |
| COc1ccc(-c2c(C(=O)Nc3ccc(S(=O)(=O)NC(=N)N)cc3)c(N)[nH]c(=O)c2C#N)cc1 [Compound 6, 2-Amino-N-(4-(carbamimidoylsulfamoyl)phenyl)-5-cyano-4-(4-methoxyphenyl)-6-oxo-1,6-dihydropyridine-3-carboxamide] | 18 ± 0.20 mm | 12 ± 0.61 mm | 14 ± 0.38 mm | – | – | 265 to 268 °C | – | 18 ± 0.12 mm | 16 ± 0.54 mm | – |
| Cc1cc2csc(N)c2c(=O)n1-c1ccc(S(=O)(=O)NC(=N)N)cc1 [Compound 10, 4-(3-Amino-6-methyl-4-oxothieno[3,4-c]pyridin-5(4H)-yl)-N-carbamimidoylbenzenesulfon-amide] | 14 ± 0.45 mm | 12 ± 0.35 mm | 16 ± 0.86 mm | 21 ± 0.54 mm | 19 ± 0.63 mm | – | 20 ± 0.43 mm | 14 ± 0.56 mm | 17 ± 0.48 mm | – |
| COc1ccc(C=Cc2cc(C)n(-c3ccc(S(=O)(=O)NC(=N)N)cc3)c(=O)c2C#N)cc1 [Compound 9b, N-Carbamimidoyl-4-(3-cyano-4-(4-methoxystyryl)-6-methyl-2-oxopyridin-1(2H)-yl) benzene sulfonamide] | 17 ± 0.56 mm | 20 ± 0.16 mm | 15 ± 0.15 mm | 16 ± 0.20 mm | 21 ± 0.55 mm | – | 22 ± 0.81 mm | 23 ± 0.50 mm | 23 ± 0.12 mm | – |
| Cc1cc(C=Cc2ccc(Cl)cc2)c(C#N)c(=O)n1-c1ccc(S(=O)(=O)NC(=N)N)cc1 [Compound 9a, N-Carbamimidoyl-4-(4-(4-chlorostyryl)-3-cyano-6-methyl-2-oxopyridin-1(2H)-yl) benzene-sulfonamide] | 19 ± 0.65 mm | 14 ± 0.52 mm | no activity | – | 25 ± 0.11 mm | – | 18 ± 0.30 mm | 22 ± 0.41 mm | 17 ± 0.78 mm | – |
| COc1ccc(-c2c(C#N)c(N)n(-c3ccc(S(=O)(=O)NC(=N)N)cc3)c(=O)c2C#N)cc1O [Compound 3d, 4-(6-Amino-3,5-dicyano-4-(3-hydroxy-4-methoxyphenyl)-2-oxopyridin-1(2H)-yl)-N-carbamimidoylbenzenesulfonamide] | 17 ± 0.21 mm | 15 ± 0.36 mm | no activity | – | 21 ± 0.54 mm | 250 to 252 °C | 22 ± 0.43 mm | 20 ± 0.11 mm | 23 ± 0.29 mm | – |
| N#C/C(=C\c1ccc(O)cc1)C(=O)Nc1ccc(S(=O)(=O)NC(=N)N)cc1 [Compound 2c, N-(4-(N-Carbamimidoylsulfamoyl)phenyl)-2-cyano-3-(4-hydroxyphenyl) acrylamide] | 16 ± 0.52 mm | 17 ± 0.24 mm | 14 ± 0.5 mm | 20 ± 0.42 mm | 17 ± 0.37 mm | 256 to 258 °C | 19 ± 0.75 mm | 20 ± 0.38 mm | 21 ± 0.85 mm | – |
| N#CCC(=O)Nc1ccc(S(=O)(=O)NC(=N)N)cc1 [Compound 1, N-(4-(N-Carbamimidoylsulfamoyl)phenyl)-2-cyanoacetamide] | 15 ± 0.63 mm | 17 ± 0.54 mm | 13 ± 0.54 mm | 20±0.65 mm | 19 ± 0.70 mm | 172 to 174 °C | 16 ± 0.35 mm | 14 ± 0.70 mm | 17 ± 0.50 mm | – |
| COc1ccc(-c2c(C#N)c(N)n(-c3ccc(S(=O)(=O)NC(=N)N)cc3)c(=O)c2C#N)cc1 [Compound 3b, 4-(6-Amino-3,5-dicyano-4-(4-methoxyphenyl)-2-oxopyridin-1(2H)-yl)-N-carbamimidoylbenzenesulfonamide] | 12 ± 0.36 mm | 14 ± 0.16 mm | no activity | – | 19 ± 0.65 mm | 256 to 258 °C | 21 ± 0.11 mm | – | – | – |
| N#Cc1c(N)cc(N)n(-c2ccc(S(=O)(=O)NC(=N)N)cc2)c1=O [Compound 7, N-Carbamimidoyl-4-(4,6-diamino-3-cyano-2-oxopyridin-1(2H)-yl) benzenesulfonamide] | 13.0 ± 0.20 mm | – | no activity | 12 ± 0.63 mm | 14 ± 0.47 mm | 260 °C | – | 13 ± 0.41 mm | – | – |
| O=C1O[C@H]([C@@H](O)CO)C(O)=C1O [Vitamin C, vitamin C, reference compound] | – | – | – | – | – | – | – | – | – | Spleen weight [11]: 260 ± 0.028 mg; Thymus index [11]: 0.633 ± 0.06 mg/g; Thymus weight [11]: 17.2 ± 0.31 mg; T cells CD4+ [12]: 76.74 ± 0.7%; T cells CD8+ [12]: 19.62 ± 0.21% |
